{
  "source": "paper PMC9718777",
  "about": "“A growth selection system for the directed evolution of amine-forming or converting enzymes” (Nature Communications, 2022)",
  "molecules": {"B1": {"name": "CHAO(wt), cyclohexylamine oxidase (Microbacterium oxydans) (protein)", "chain": "THLNTYESVTPDPDVDVIIIGAGISGSAAAKALHDQGASVLVVEANDRIGGRTWTEQEGAPGGPIDYGGMFIGETHTHLIELGTSLGLEMTPSGKPGDDTYIVAGNVLRAPDDQLDPNLPFVPEFLSSLKALDELADSVGWDQPWASPNAAALDSKTVATWLAETIESEEVRRLHTVIVNTLLGADPYEVSLLYWAYYVSECEGIQSLMGTRDGAQWAWWFGGAAQVSWRIADAIGRDKFLLEWPVDRIEHDESGVTLFSGQRSLRARHIVIAMSPLAANQIRFEPALPTSRAQLQARAPMGRYYKVQARYPSSFWVEQGYSGALLDTEDVGVFLLDGTKPTDTLATLIGFIGGSNYDRWAAHTPQERERAFLDLLVKAFGPQAADPSYFHETDWTQQEWAKGGPVTYMPPGVLANFGAALRDPVGKVHFAGTEASFQWSGYMEGGVRAGQKAAAAIAEELERTANKGALV"}},
  "key": {"[1]": {"molecular_target": "T1, PcPAL(AI), phenylalanine ammonia lyase (Petroselinum crispum, UniProt P24481, L134A/L256I)", "T1 construct": "gene PAL1; purified variant of full-length PcPAL, recombinant in E. coli; MIO-dependent homotetramer", "test": "specific activity of purified variant (amination of […])", "assay_type": "biochemical"}, "[2]": {"molecular_target": "T2, AtTA(wt), (R)-selective amine transaminase (Aspergillus terreus, UniProt Q0C8G1)", "T2 construct": "gene ATEG_10023", "T2 sequence (Q0C8G1 1-325)": "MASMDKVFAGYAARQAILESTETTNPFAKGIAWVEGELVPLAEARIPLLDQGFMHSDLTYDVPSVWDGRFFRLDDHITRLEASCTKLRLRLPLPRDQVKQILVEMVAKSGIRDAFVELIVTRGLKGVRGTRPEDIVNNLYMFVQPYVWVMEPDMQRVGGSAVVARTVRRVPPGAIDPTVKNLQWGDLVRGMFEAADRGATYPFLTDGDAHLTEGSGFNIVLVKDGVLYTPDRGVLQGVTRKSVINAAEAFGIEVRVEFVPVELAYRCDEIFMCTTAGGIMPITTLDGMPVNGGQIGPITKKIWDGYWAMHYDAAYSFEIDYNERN", "test": "specific activity (benchmark substrate)", "assay_type": "biochemical"}, "[3]": {"tested_on": "C[C@H](N)c1cccc2ccccc12", "test": "purified protein", "assay_type": "biochemical, Microbacterium oxydans", "settings": "FAD active site"}, "[4]": {"molecular_target": "T3, PcPAL(wt), phenylalanine ammonia lyase (Petroselinum crispum, UniProt P24481)", "T3 construct": "gene PAL1", "test": "specific activity of purified enzyme", "assay_type": "biochemical"}, "[5]": {"molecular_target": "T3, PcPAL(wt), phenylalanine ammonia lyase", "test": "specific activity", "assay_type": "biochemical"}, "[6]": {"molecular_target": "T2, AtTA(wt), (R)-selective amine transaminase", "test": "specific activity of purified enzyme with pyruvate", "assay_type": "biochemical"}, "[7]": {"molecular_target": "T4, AtTA(RHC), (R)-selective amine transaminase (Aspergillus terreus, UniProt Q0C8G1, H55R/F115H/E117C)", "T4 construct": "gene ATEG_10023", "test": "specific activity of purified variant with pyruvate; asymmetric synthesis", "assay_type": "biochemical"}, "[8]": {"substrate": "C[C@H](N)c1cccc2ccccc12", "test": "purified protein", "assay_type": "biochemical, Microbacterium oxydans", "settings": "FAD active site", "remark": "listed apart in the source"}},
  "data": [
    {"molecule": "O=C(O)/C=C/c1cccc2ccccc12", "note": "[compound 6, 6]", "values": [
      {"measurement": "specific activity of purified variant (amination of 6)", "setting": "[1]", "value": 0.55, "unit": "U/mg"}
    ]},
    {"molecule": "C[C@@H](N)c1ccccc1", "note": "[(R)-1-phenylethylamine]", "values": [
      {"measurement": "specific activity (benchmark substrate)", "setting": "[2]", "value": 2.9, "unit": "U/mg"}
    ]},
    {"molecule": "CHAO(MVLM), cyclohexylamine oxidase (Microbacterium oxydans; L182V/M209L/T181M/Y304M)", "values": [
      {"measurement": "Km", "setting": "[3]", "value": 2.2, "unit": "mM"}
    ]},
    {"molecule": "N[C@@H](Cc1cccc2ccccc12)C(=O)O", "note": "[(S)-5, (S)-2-amino-3-(naphthalen-1-yl)propanoic acid]", "values": [
      {"measurement": "specific activity of purified enzyme", "setting": "[4]", "value": 0.0027, "unit": "U/mg"}
    ]},
    {"molecule": "N[C@@H](Cc1ccccc1)C(=O)O", "note": "[ʟ-phenylalanine]", "values": [
      {"measurement": "specific activity", "setting": "[5]", "value": 0.147, "unit": "U/mg"}
    ]},
    {"molecule": "CC(C)(C)OC(=O)N1CCC[C@@H](N)C1", "note": "[(R)-1, (R)-1-Boc-3-aminopiperidine]", "values": [
      {"measurement": "specific activity of purified enzyme with pyruvate", "setting": "[6]", "value": 0.038, "unit": "U/mg"},
      {"measurement": "specific activity of purified variant with pyruvate; asymmetric synthesis", "setting": "[7]", "value": 4.2, "unit": "U/mg"}
    ]},
    {"molecule": "B1", "values": [
      {"measurement": "Km", "setting": "[8]", "value": 4.5, "unit": "mM"}
    ]}
  ]
}
